Like-named read-outs stand apart in the source and are kept apart here. Values belong to the compound of their own block, whether it stands above or below them.
Assays:
SAE = biological target: T1, SAE (Homo sapiens, UniProt Q9UBT2); assay: SUMO IF: in vitro inhibitory activity assay against SAE in HCT116 cells (SUMO-2/3 immunofluorescence); assay type: cell-based; details: 6 h at 37° C.
T1 construct: endogenous in cells; host or cells: HCT116
T1 sequence (Q9UBT2 1-640): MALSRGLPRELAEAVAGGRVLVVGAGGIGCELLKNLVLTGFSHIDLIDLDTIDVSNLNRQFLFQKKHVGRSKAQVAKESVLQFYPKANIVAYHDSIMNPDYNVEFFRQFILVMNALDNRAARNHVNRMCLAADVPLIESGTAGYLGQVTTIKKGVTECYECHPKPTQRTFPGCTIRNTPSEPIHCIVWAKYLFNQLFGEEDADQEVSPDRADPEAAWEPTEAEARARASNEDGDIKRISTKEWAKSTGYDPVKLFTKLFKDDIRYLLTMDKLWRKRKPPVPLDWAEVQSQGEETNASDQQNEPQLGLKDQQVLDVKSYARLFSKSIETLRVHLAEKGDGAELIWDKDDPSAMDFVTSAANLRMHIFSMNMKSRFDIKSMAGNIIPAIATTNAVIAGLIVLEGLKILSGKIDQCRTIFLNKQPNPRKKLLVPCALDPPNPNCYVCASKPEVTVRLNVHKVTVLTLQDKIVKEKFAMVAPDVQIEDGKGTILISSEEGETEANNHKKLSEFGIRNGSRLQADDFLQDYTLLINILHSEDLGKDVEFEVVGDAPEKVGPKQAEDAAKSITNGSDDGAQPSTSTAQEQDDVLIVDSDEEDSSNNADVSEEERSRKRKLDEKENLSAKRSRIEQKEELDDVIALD
T1 sequence (Q9UBE0 1-346): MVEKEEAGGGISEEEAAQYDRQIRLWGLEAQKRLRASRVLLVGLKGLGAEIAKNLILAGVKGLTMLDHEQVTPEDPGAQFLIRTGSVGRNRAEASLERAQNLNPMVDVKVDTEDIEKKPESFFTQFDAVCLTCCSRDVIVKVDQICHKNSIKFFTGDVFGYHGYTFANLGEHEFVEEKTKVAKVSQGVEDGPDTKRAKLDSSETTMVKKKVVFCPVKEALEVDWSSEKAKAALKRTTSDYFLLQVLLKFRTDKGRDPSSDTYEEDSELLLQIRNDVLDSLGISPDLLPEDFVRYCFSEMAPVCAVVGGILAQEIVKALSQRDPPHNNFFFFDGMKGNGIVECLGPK
Method in brief: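 HCT116 cells were treated with compound for 6 h at 37 °C, then PFA-fixed, Triton-permeabilised and BSA-blocked. They were stained overnight at 4 °C with anti-SUMO-2/3 (18H8) rabbit mAb (1:400), then with FITC anti-rabbit IgG (1:300). Fluorescence versus DMSO gave inhibition rate and IC50.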

[1] = In vivo pharmacokinetic experiment in CD-1 female mice, intravenous; details: CD-1 mice; for Plasma AUClast: plasma (Table 4); for C0 / clearance / half-life / AUC(0-t) / Cmax / Vd / blood plasma ratio: mouse; for Vd: read-out: Vdss; for blood plasma ratio: in vivo, iv
Protocol: Biological Example 3. In Vivo Pharmacokinetic Experiment of Compound of the Present Disclosure
[…] The mice were fasted for at least 12 h before the administration and given food after the administration, and they were given ad libitum access to water during the experiment. On the day of the experiment, animals in the intravenous group were administered the corresponding compound by single injection via the tail vein at an administration volume of 0.2 mL/animal. The sample collection time was 0.083 h, 0.167 h, 0.5 h, 1 h, 2 h, 4 h, 8 h, and 24 h. About 150 μL of whole blood was collected through the submaxillary venous plexus at each time point (30 μL of whole blood was diluted with ultrapure water at a ratio of 1:3, and 120 μL of whole blood was centrifuged to obtain plasma) and used for concentration determination by high-performance liquid chromatography-tandem mass spectrometry (LC-MS/MS). All animals were sacrificed after the PK samples were collected at the last time point. The plasma concentration was processed using a non-compartmental model of Phoenix WinNonlin™ version 8.3 (Certara) pharmacokinetic software, and the pharmacokinetic parameters were calculated using a linear-log trapezoidal method.

[2] = 2 mg/kg, 2 mpk, plasma, read-out: AUClast
[3] = 2 mg/kg, 2 mpk, plasma, read-out: Cmax
[4] = 2 mg/kg, 2 mpk, whole blood, read-out: Whole blood AUClast
[5] = 2 mg/kg, 2 mpk, whole blood, read-out: Whole blood Cmax
[6] = 2 mg/kg, 2 mpk, read-out: Whole blood AUClast/plasma AUClast ratio
[7] = 2 mg/kg, 2 mpk, read-out: Whole blood Cmax/plasma Cmax ratio

Plasma AUClast ([1]; 2 mpk): 615 ng·h/mL
C0 ([1]; 2 mg/kg, 2 mpk, plasma): 431 ng/mL
clearance ([1]; 2 mg/kg, 2 mpk, plasma): 53.1 mL/min/kg
half-life ([1]; 2 mg/kg, 2 mpk, plasma): 4.73 h
AUC(0-t) [1, 2]: 615 ng·h/mL
Cmax [1, 3]: 331 ng/mL
Vd ([1]; 2 mg/kg, 2 mpk, plasma): 12.7 L/kg
AUC(0-t) [1, 4]: 46600 ng·h/mL
Cmax [1, 5]: 13400 ng/mL
blood plasma ratio [1, 6]: 75.7
blood plasma ratio [1, 7]: 40.5
Structure (SMILES): NS(=O)(=O)OC[C@H]1[C@H](F)[C@@H](Nc2ncncc2C(=O)c2cc3c(s2)CCC[C@]32NCCc3ccc(Cl)cc32)C[C@@H]1O [Compound 90]
IC50 (SAE; numeric values): 21.1 nM

Plasma AUClast ([1]; 2 mpk): 448 ng·h/mL
C0 ([1]; 2 mg/kg, 2 mpk, plasma): 406 ng/mL
clearance ([1]; 2 mg/kg, 2 mpk, plasma): 71.1 mL/min/kg
half-life ([1]; 2 mg/kg, 2 mpk, plasma): 1.88 h
AUC(0-t) [1, 2]: 448 ng·h/mL
Cmax [1, 3]: 281 ng/mL
Vd ([1]; 2 mg/kg, 2 mpk, plasma): 9.18 L/kg
AUC(0-t) [1, 4]: 25100 ng·h/mL
Cmax [1, 5]: 13300 ng/mL
blood plasma ratio [1, 6]: 56
blood plasma ratio [1, 7]: 47.4
Structure (SMILES): NS(=O)(=O)OC[C@H]1[C@H](F)[C@@H](Nc2ncncc2C(=O)c2cc3c(s2)CCC[C@]32NCCc3ccc(F)cc32)C[C@@H]1O [Compound 93]
IC50 (SAE; numeric values): 32.1 nM

Plasma AUClast ([1]; 2 mpk): 602 ng·h/mL
C0 ([1]; 2 mg/kg, 2 mpk, plasma): 803 ng/mL
clearance ([1]; 2 mg/kg, 2 mpk, plasma): 27.5 mL/min/kg
half-life ([1]; 2 mg/kg, 2 mpk, plasma): 3.48 h
AUC(0-t) [1, 2]: 602 ng·h/mL
Cmax [1, 3]: 438 ng/mL
Vd ([1]; 2 mg/kg, 2 mpk, plasma): 5.45 L/kg
AUC(0-t) [1, 4]: 38200 ng·h/mL
Cmax [1, 5]: 9270 ng/mL
blood plasma ratio [1, 6]: 63.4
blood plasma ratio [1, 7]: 21.1
Structure (SMILES): NS(=O)(=O)OC[C@H]1[C@H](F)[C@@H](Nc2ncncc2C(=O)c2cc3c(s2)CC[C@]32NCCc3ccc(Cl)cc32)C[C@@H]1O [Compound 132]
IC50 (SAE; numeric values): 40.6 nM

Plasma AUClast ([1]; 1 mpk): 132 ng·h/mL
C0 ([1]; 1 mg/kg, 1 mpk, plasma): 77 ng/mL
clearance ([1]; 1 mg/kg, 1 mpk, plasma): 103 mL/min/kg
half-life ([1]; 1 mg/kg, 1 mpk, plasma): 3.63 h
AUC(0-t) ([1]; 1 mg/kg, 1 mpk, plasma, read-out: AUClast): 132 ng·h/mL
Cmax ([1]; 1 mg/kg, 1 mpk, plasma, read-out: Cmax): 58 ng/mL
Vd ([1]; 1 mg/kg, 1 mpk, plasma): 27.6 L/kg
AUC(0-t) ([1]; 1 mg/kg, 1 mpk, whole blood, read-out: Whole blood AUClast): 30100 ng·h/mL
Cmax ([1]; 1 mg/kg, 1 mpk, whole blood, read-out: Whole blood Cmax): 4430 ng/mL
blood plasma ratio ([1]; 1 mg/kg, 1 mpk, read-out: Whole blood AUClast/plasma AUClast ratio): 228
blood plasma ratio ([1]; 1 mg/kg, 1 mpk, read-out: Whole blood Cmax/plasma Cmax ratio): 76.3
Structure (SMILES): Cc1sc(C(=O)c2cncnc2N[C@H]2C[C@H](O)[C@@H](COS(N)(=O)=O)[C@@H]2F)cc1[C@@H]1NCCc2ccc(Cl)cc21 [Compound 233]
IC50 (SAE; numeric values): 42.6 nM

Plasma AUClast ([1]; 2 mpk): 345 ng·h/mL
C0 ([1]; 2 mg/kg, 2 mpk, plasma): 249 ng/mL
clearance ([1]; 2 mg/kg, 2 mpk, plasma): 94.9 mL/min/kg
half-life ([1]; 2 mg/kg, 2 mpk, plasma): 1.48 h
AUC(0-t) [1, 2]: 345 ng·h/mL
Cmax [1, 3]: 299 ng/mL
Vd ([1]; 2 mg/kg, 2 mpk, plasma): 8.65 L/kg
AUC(0-t) [1, 4]: 17000 ng·h/mL
Cmax [1, 5]: 7780 ng/mL
blood plasma ratio [1, 6]: 49.2
blood plasma ratio [1, 7]: 26
Structure (SMILES): NS(=O)(=O)OC[C@H]1[C@H](F)[C@@H](Nc2ncncc2C(=O)c2cc3c(s2)C=C[C@]32NCCc3ccc(Cl)cc32)C[C@@H]1O [Compound 344]
IC50 (SAE; numeric values): 20.7 nM

Structure (SMILES): CC1(C)Cc2ccc(Cl)cc2[C@@]2(CCCc3sc(C(=O)c4cncnc4N[C@H]4C[C@H](O)[C@@H](COS(N)(=O)=O)[C@@H]4F)cc32)N1 [Compound 1031]
IC50 (SAE; class symbols): 50 to 200 nM

Structure (SMILES): CC1CNC2(C=Cc3sc(C(=O)c4cncnc4N[C@H]4C[C@H](O)[C@@H](COS(N)(=O)=O)[C@@H]4F)cc32)c2cc(Cl)ccc21 (stereo partly shown) [Compound 1053]
IC50 (SAE; class symbols): 50 to 200 nM

Structure (SMILES): CC1CN[C@@]2(C=Cc3sc(C(=O)c4cncnc4N[C@H]4C[C@H](O)[C@@H](COS(N)(=O)=O)[C@@H]4F)cc32)c2cc(Cl)ccc21 (stereo partly shown) [Compound 1054]
IC50 (SAE; class symbols): > 200 nM

Structure (SMILES): CC1CN[C@]2(C=Cc3sc(C(=O)c4cncnc4N[C@H]4C[C@H](O)[C@@H](COS(N)(=O)=O)[C@@H]4F)cc32)c2cc(Cl)ccc21 (stereo partly shown) [Compound 1055]
IC50 (SAE; class symbols): ≤ 50 nM

Structure (SMILES): CC1Cc2ccc(Cl)cc2C2(C=Cc3sc(C(=O)c4cncnc4N[C@H]4C[C@H](O)[C@@H](COS(N)(=O)=O)[C@@H]4F)cc32)N1 (stereo partly shown) [Compound 1056]
IC50 (SAE; class symbols): 50 to 200 nM

Structure (SMILES): CC1Cc2ccc(Cl)cc2[C@]2(C=Cc3sc(C(=O)c4cncnc4N[C@H]4C[C@H](O)[C@@H](COS(N)(=O)=O)[C@@H]4F)cc32)N1 (stereo partly shown) [Compound 1057]
IC50 (SAE; class symbols): > 200 nM

Structure (SMILES): CC1Cc2ccc(Cl)cc2[C@@]2(C=Cc3sc(C(=O)c4cncnc4N[C@H]4C[C@H](O)[C@@H](COS(N)(=O)=O)[C@@H]4F)cc32)N1 (stereo partly shown) [Compound 1058]
IC50 (SAE; class symbols): 50 to 200 nM

Structure (SMILES): CC1(C)CNC2(C=Cc3sc(C(=O)c4cncnc4N[C@H]4C[C@H](O)[C@@H](COS(N)(=O)=O)[C@@H]4F)cc32)c2cc(Cl)ccc21 (stereo partly shown) [Compound 1059]
IC50 (SAE; class symbols): 50 to 200 nM

Structure (SMILES): CC1(C)CN[C@@]2(C=Cc3sc(C(=O)c4cncnc4N[C@H]4C[C@H](O)[C@@H](COS(N)(=O)=O)[C@@H]4F)cc32)c2cc(Cl)ccc21 [Compound 1060]
IC50 (SAE; class symbols): > 200 nM

Structure (SMILES): CC1(C)CN[C@]2(C=Cc3sc(C(=O)c4cncnc4N[C@H]4C[C@H](O)[C@@H](COS(N)(=O)=O)[C@@H]4F)cc32)c2cc(Cl)ccc21 [Compound 1061]
IC50 (SAE; class symbols): 50 to 200 nM

— patent US20260297109A1, “COMPOUNDS AS SUMO ACTIVATING ENZYME INHIBITORS” (WIGEN BIOMEDICINE TECHNOLOGY (SHANGHAI) CO., LTD., priority 2022, published 2026)
